Results: patent publication US9481654B2, “Compositions and methods for inhibition of the JAK pathway” (Rigel Pharmaceuticals, Inc., priority 2006, dated 2016)
Counter-ions that a name gives are not always drawn.

What follows are molecules tested on IL-4 stimulated CD23 upregulation in human Ramos B cells (JAK-1/JAK-3, Stat-6) (assay: Assay for Ramos B-Cell Line Stimulated with IL-4 (CD23 upregulation, FACS)). Conditions: Table III Example 3.
Format: cell-based
Description: One means of assaying for such inhibition is detection of the effect of the 2,4-pyrimidinediamine compounds on the upregulation of downstream gene products. In the Ramos/IL4 assay, B-cells are stimulated with the cytokine Interleukin-4 (IL-4) leading to the activation of the JAK/Stat pathway through phosphorylation of the JAK family kinases, JAK1 and JAK3, which in turn phosphorylate and activate the transcription factor Stat-6. […] To study the effect of inhibitors (e.g., the 2,4-substituted pyrimindinediamine compounds described herein) on the JAK1 and JAK3 kinases, human Ramos B cells are stimulated with human IL-4. 20 to 24 hours post stimulation, cells are stained for upregulation of CD23 and analyzed using flow cytometry (FACS).
B-cells stimulated with cytokine Interleukin-4 (IL-4) activate the JAK/Stat pathway through phosphorylation of the JAK family kinases, JAK-1 and JAK-3, which in turn phosphorylate and activate the transcription factor Stat-6. […] To study the effect of inhibitors on the JAK family kinases, human Ramos B cells are stimulated with human IL-4.
Cells were maintained at a density of 3.5×10^5. The day before the experiment, Ramos B-cells were diluted to 3.5×10^5 cells/mL to ensure that they were in a logarithmic growth phase.
Cells were spun down and suspended in RPMI with 5% serum. 5×10^4 cells were used per point in a 96-well tissue culture plate. Cells were pre-incubated with compound or DMSO (Sigma-Aldrich, St. Louis, Mo., Cat No. D2650) vehicle control for 1 hour in a 37° C. incubator. Cells were then stimulated with IL-4 (Peprotech Inc., Rocky Hill, N.J., Cat No. 200-04) for a final concentration of 50 units/mL for 20-24 hours. […] Detection was performed using a BD LSR I System Flow Cytometer, purchased from Becton Dickinson Biosciences of San Jose, Calif.

Question: Cc1cnc(Nc2cccc(S(=O)(=O)NC(=O)CNC(=O)OC(C)(C)C)c2)nc1Nc1cccc(CNS(=O)(=O)C2CC2)c1 [Compound I-140, N2-{3-N-[2-(t-butoxycarbonylamino)-1-oxoethyl]aminosulfonyl}phenyl-N4-(3-cyclopropylsulfonylaminomethyl)phenyl-5-methyl-2,4-pyrimidinediamine] was tested. Which IC50 did it give?
Answer: 3.94 µM

Question: For CCC(=O)NS(=O)(=O)c1ccc(Nc2ncc(C)c(Nc3ccc(CN(C(=O)CC)S(=O)(=O)C4CC4)cc3)n2)cc1 [Compound I-77, N4-[4-(N-cyclopropylsulfonyl-N-propionyl)aminomethyl]phenyl-5-methyl-N2-(4-propionylaminosulfonyl)phenyl-2,4-pyrimidinediamine], which IC50 is on record?
Answer: 1.23 µM

Question: Which IC50 does the source give for Cc1ccc(Nc2ncc(F)c(Nc3ccc4c(c3)CN(S(=O)(=O)C3CC3)C4)n2)cc1S(N)(=O)=O [II-4, N2-(3-Aminosulfonyl-4-methylphenyl)-N4-[(2-cyclopropylsulfonyl)-isoindolin-5-yl]-5-fluoro-2,4-pyrimidinediamine] here?
Answer: 0.72 µM

Question: How did the IC50 turn out when NS(=O)(=O)c1cccc(Nc2ncc(F)c(Nc3ccc4c(c3)CN(S(=O)(=O)C3CC3)C4)n2)c1 [II-5, N2-(3-Aminosulfonyl-phenyl)-N4-[(2-cyclopropylsulfonyl)-isoindolin-5-yl]-5-fluoro-2,4-pyrimidinediamine] was run?
Answer: 0.698 µM

Question: With Cc1cnc(Nc2cccc(S(=O)(=O)NC(=O)C3(NC(=O)OC(C)(C)C)CCCC3)c2)nc1Nc1cccc(CNS(=O)(=O)C2CC2)c1 [Compound I-148, N2-[3-N-(Boc-cycloleucine)aminosulfonyl]phenyl-N4-(3-cyclopropylsulfonylaminomethyl)phenyl-5-methyl-2,4-pyrimidinediamine] as the molecule, how does the IC50 read?
Answer: 16.2 µM

Question: With Cc1cnc(Nc2cccc(S(=O)(=O)NC(=O)[C@@H](NC(=O)OCc3ccccc3)C(C)C)c2)nc1Nc1cccc(CNS(=O)(=O)C2CC2)c1 [Compound I-144, N2-[3-N-(Cbz-L-Val)aminosulfonyl]phenyl-N4-(3-cyclopropylsulfonylaminomethyl)phenyl-5-methyl-2,4-pyrimidinediamine] as the molecule, how does the IC50 read?
Answer: 7.72 µM

Question: Which IC50 does the source give for “N4-[4-(N-cyclopropylsulfonyl-N-propionyl)aminomethyl]phenyl-5-methyl-N2-(4-propionylaminosulfonyl)phenyl-2,4-pyrimidinediamine sodium salt [Compound I-78]” here?
Answer: 1.08 µM

Question: For CCCC(=O)N(Cc1cccc(Nc2nc(Nc3cccc(S(N)(=O)=O)c3)ncc2C)c1)S(=O)(=O)C1CC1 [Compound I-224, N2-(3-aminosulfonyl)phenyl-N4-[3-(N-butyryl-N-cyclopropylsulfonyl)aminomethyl]phenyl-5-methyl-2,4-pyrimidinediamine], which IC50 is on record?
Answer: 0.0218 µM

Question: Which IC50 does the source give for Cc1cnc(Nc2cccc(S(=O)(=O)NC(=O)[C@H](Cc3ccccc3)NC(=O)OCc3ccccc3)c2)nc1Nc1cccc(CNS(=O)(=O)C2CC2)c1 [Compound I-139, N2-[3-N-(Cbz-L-Phe)aminosulfonyl]phenyl-N4-(3-cyclopropylsulfonylaminomethyl)phenyl-5-methyl-2,4-pyrimidinediamine] here?
Answer: 3.32 µM

Question: With Cc1cnc(Nc2cccc(S(=O)(=O)NC(=O)[C@@H](N)Cc3ccccc3)c2)nc1Nc1cccc(CNS(=O)(=O)C2CC2)c1 [Compound I-134, N2-[3-N-(L-Phe)aminosulfonyl]phenyl-N4-(3-cyclopropylsulfonylaminomethyl)phenyl-5-methyl-2,4-pyrimidinediamine] as the molecule, how does the IC50 read?
Answer: 0.751 µM

Question: Cc1cnc(Nc2cccc(S(=O)(=O)Nc3cccnc3)c2)nc1Nc1ccc(CNS(=O)(=O)C2CC2)cc1 [Compound I-174, N4-(4-cyclopropylsulfonylaminomethyl)phenyl-5-methyl-N2-[3-(3-pyridyl)aminosulfonyl]phenyl-2,4-pyrimidinediamine] was tested. Which IC50 did it give?
Answer: 1.12 µM

Question: Cc1cnc(Nc2cccc(S(=O)(=O)N[C@H](C(=O)O)C(C)C)c2)nc1Nc1cccc(CNS(=O)(=O)C2CC2)c1 [Compound I-138, N2-[3-N-(L-Val)aminosulfonyl]phenyl-N4-(3-cyclopropylsulfonylaminomethyl)phenyl-5-methyl-2,4-pyrimidinediamine] was tested. Which IC50 did it give?
Answer: 2.38 µM

Question: CCCC(=O)NS(=O)(=O)c1ccc(Nc2ncc(C)c(Nc3ccc(CN(C(=O)CCC)S(=O)(=O)C4CC4)cc3)n2)cc1 [Compound I-204, N2-(4-butyrylaminosulfonyl)phenyl-N4-[4-(N-butyryl-N-cyclopropylsulfonyl)aminomethyl]phenyl-5-methyl-2,4-pyrimidinediamine] was tested. Which IC50 did it give?
Answer: 1.04 µM

Question: With “N4-[3-(N-cyclopropylsulfonyl-N-valeryl)aminomethyl]phenyl-5-methyl-N2-(3-valerylaminosulfonyl)phenyl-2,4-pyrimidinediamine sodium salt [Compound I-221]” as the molecule, how does the IC50 read?
Answer: 1.88 µM

Question: CCC(=O)NS(=O)(=O)c1cc(Nc2ncc(F)c(Nc3ccc(CN(C(=O)CC)S(=O)(=O)C4CC4)cc3)n2)ccc1C [Compound I-60, N4-[4-(N-cyclopropylsulfonyl-N-propionyl)aminomethyl]phenyl-5-fluoro-N2-(4-methyl-3-propionylaminosulfonyl)phenyl-2,4-pyrimidinediamine] was tested. Which IC50 did it give?
Answer: 7.08 µM

Question: CCC(=O)NS(=O)(=O)c1cccc(Nc2ncc(F)c(Nc3ccc(CNS(=O)(=O)C4CC4)cc3)n2)c1 [Compound I-57, N4-(4-cyclopropylsulfonylaminomethyl)phenyl-5-fluoro-N2-(3-propionylaminosulfonyl)phenyl-2,4-pyrimidinediamine] was tested. Which IC50 did it give?
Answer: 12.3 µM

Question: For CCOC(=O)N(CC)S(=O)(=O)c1cccc(Nc2ncc(C)c(Nc3cccc(CNS(=O)(=O)C4CC4)c3)n2)c1 [Compound I-130, N4-(3-cyclopropylsulfonylaminomethyl)phenyl-N2-[3-(N-ethoxycarbonyl-N-ethyl)aminosulfonyl]phenyl-5-methyl-2,4-pyrimidinediamine], which IC50 is on record?
Answer: 0.544 µM

Question: Which IC50 does the source give for Cc1cnc(Nc2cccc(S(=O)(=O)NC(=O)CN)c2)nc1Nc1cccc(CNS(=O)(=O)C2CC2)c1 [Compound I-131, N2-[3-N-(2-amino-1-oxoethyl)aminosulfonyl]phenyl-N4-(3-cyclopropylsulfonylaminomethyl)phenyl-5-methyl-2,4-pyrimidinediamine] here?
Answer: 0.557 µM

Question: For Cc1cnc(Nc2cccc(S(=O)(=O)NC(=O)[C@@H](N)Cc3ccccc3)c2)nc1Nc1cccc(CNS(=O)(=O)C2CC2)c1 [Compound I-132, N2-[3-N-(L-Phe)aminosulfonyl]phenyl-N4-(3-cyclopropylsulfonylaminomethyl)phenyl-5-methyl-2,4-pyrimidinediamine hydrogen chloride salt], which IC50 is on record?
Answer: 0.594 µM

Same assay, conditions: Table III Example 3, sodium salt

Question: Which IC50 does the source give for CCC(=O)NS(=O)(=O)c1cc(Nc2ncc(F)c(Nc3ccc(CNS(=O)(=O)C4CC4)cc3)n2)ccc1C [Compound I-63, N4-(4-cyclopropylsulfonylaminomethyl)phenyl-5-fluoro-N2-(4-methyl-3-propionylaminosulfonyl)phenyl-2,4-pyrimidinediamine sodium salt] here?
Answer: 9.45 µM

Question: For CCCC(=O)NS(=O)(=O)c1ccc(Nc2ncc(C)c(Nc3ccc(CN(C(=O)CCC)S(=O)(=O)C4CC4)cc3)n2)cc1 [Compound I-206, N2-(4-butyrylaminosulfonyl)phenyl-N4-[4-(N-butyryl-N-cyclopropylsulfonyl)aminomethyl]phenyl-5-methyl-2,4-pyrimidinediamine sodium salt], which IC50 is on record?
Answer: 0.946 µM

Question: How did the IC50 turn out when CCCCCC(=O)NS(=O)(=O)c1cccc(Nc2ncc(C)c(Nc3cccc(CN(C(=O)CCCCC)S(=O)(=O)C4CC4)c3)n2)c1 [Compound I-219, N4-[3-(N-cyclopropylsulfonyl-N-hexanoyl)aminomethyl]phenyl-N2-(3-hexanoylaminosulfonyl)phenyl-5-methyl-2,4-pyrimidinediamine sodium salt] was run?
Answer: 2.6 µM

Question: For CCC(=O)NS(=O)(=O)c1cccc(Nc2ncc(F)c(Nc3ccc(CN(C(=O)CC)S(=O)(=O)C4CC4)cc3)n2)c1 [Compound I-62, N4-[4-(N-cyclopropylsulfonyl-N-propionyl)aminomethyl]phenyl-5-fluoro-N2-(3-propionylaminosulfonyl)phenyl-2,4-pyrimidinediamine sodium salt], which IC50 is on record?
Answer: 10.7 µM

Question: For CCC(=O)NS(=O)(=O)c1ccc(Nc2ncc(C)c(Nc3ccc(CNS(=O)(=O)C4CC4)cc3)n2)cc1 [Compound I-88, N4-(4-cyclopropylsulfonylaminomethyl)phenyl-5-methyl-N2-(4-propionylaminosulfonyl)phenyl-2,4-pyrimidinediamine sodium salt], which IC50 is on record?
Answer: 0.0599 µM

Question: Which IC50 does the source give for CCCC(=O)NS(=O)(=O)c1cccc(Nc2ncc(C)c(Nc3cccc(CN(C(=O)CCC)S(=O)(=O)C4CC4)c3)n2)c1 [Compound I-205, N2-(3-butyrylaminosulfonyl)phenyl-N4-[3-(N-butyryl-N-cyclopropylsulfonyl)aminomethyl]phenyl-5-methyl-2,4-pyrimidinediamine sodium salt] here?
Answer: 3.44 µM

Question: Cc1cnc(Nc2cccc(S(=O)(=O)NC(=O)CNC(=O)OCc3ccccc3)c2)nc1Nc1cccc(CNS(=O)(=O)C2CC2)c1 [Compound I-143, N2-{3-N-[2-(benzoxycarbonylamino)-1-oxoethyl]aminosulfonyl}phenyl-N4-(3-cyclopropylsulfonylaminomethyl)phenyl-5-methyl-2,4-pyrimidinediamine sodium salt] was tested. Which IC50 did it give?
Answer: 7.29 µM
